Results on 29 molecules are retold here after patent US4401594A, “L-Argininal derivatives and a method of manufacturing the same” (Nippon Kayaku Kabushiki Kaisha, priority 1980, dated 1983).

For orientation: IC50 means the concentration at which inhibition is half-maximal.

SMILES strings stand for the structures. Structures can show the parent of a compound that is named as a salt. Where a SMILES comes first, the peptide text is derived from it. [ ]: non-standard residue; d: D form. The star is where a group is joined. pGlu = O=C1CC[C@@H](C(=O)O)N1; Cbz = O=C(OCc1ccccc1)*

One test deals with T1, plasmin (Homo sapiens, UniProt P00747).
T1 construct: fibrinogen substrate
T1 sequence (P00779 27-440): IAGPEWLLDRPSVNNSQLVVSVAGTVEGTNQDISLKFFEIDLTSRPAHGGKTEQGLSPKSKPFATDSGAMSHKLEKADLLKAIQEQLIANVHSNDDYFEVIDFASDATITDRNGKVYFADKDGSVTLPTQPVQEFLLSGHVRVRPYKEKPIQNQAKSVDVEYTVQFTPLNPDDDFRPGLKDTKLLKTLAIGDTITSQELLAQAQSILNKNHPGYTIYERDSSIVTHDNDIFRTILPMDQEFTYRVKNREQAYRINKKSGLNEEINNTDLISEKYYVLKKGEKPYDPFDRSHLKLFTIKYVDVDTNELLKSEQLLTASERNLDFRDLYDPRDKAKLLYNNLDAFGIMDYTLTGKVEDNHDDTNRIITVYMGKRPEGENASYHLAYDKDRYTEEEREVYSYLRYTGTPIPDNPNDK
T1 sequence (P00747 97-810): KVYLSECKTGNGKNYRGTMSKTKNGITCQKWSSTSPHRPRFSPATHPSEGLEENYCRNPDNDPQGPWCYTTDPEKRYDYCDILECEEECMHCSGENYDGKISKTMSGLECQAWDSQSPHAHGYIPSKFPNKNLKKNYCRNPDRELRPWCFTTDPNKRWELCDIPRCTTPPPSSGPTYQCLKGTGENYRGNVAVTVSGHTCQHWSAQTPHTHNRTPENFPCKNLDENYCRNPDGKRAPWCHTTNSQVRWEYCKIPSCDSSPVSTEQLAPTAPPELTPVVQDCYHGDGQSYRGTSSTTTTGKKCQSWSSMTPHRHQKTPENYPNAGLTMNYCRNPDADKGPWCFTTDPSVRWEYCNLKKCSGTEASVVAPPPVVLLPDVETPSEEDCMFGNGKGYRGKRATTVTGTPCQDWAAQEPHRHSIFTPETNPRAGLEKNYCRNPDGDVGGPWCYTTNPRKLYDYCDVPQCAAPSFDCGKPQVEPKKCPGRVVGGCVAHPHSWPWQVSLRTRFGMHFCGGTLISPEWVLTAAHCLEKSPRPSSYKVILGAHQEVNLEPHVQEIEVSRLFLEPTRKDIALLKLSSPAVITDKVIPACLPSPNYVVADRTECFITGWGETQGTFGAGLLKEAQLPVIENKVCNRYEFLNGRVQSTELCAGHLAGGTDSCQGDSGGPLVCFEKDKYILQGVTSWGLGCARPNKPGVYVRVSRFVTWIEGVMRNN
Kind of test: Determination of Anti-Plasmin Activity. Format: biochemical. Conditions: fibrinogen substrate, plasminogen from human serum + streptokinase, pH 7.2, 37° C., 20 minutes; read-out: IC50 Plasmin (converted). On the procedure: The inhibitory activity of the compounds on each protease was determined as follows:
Buffer solution: pH 7.2, 0.01 M phosphate buffer solution.
Substrate: 2 g of fibrinogen (Armour Pharm. Co., U.S.A.) were dissolved in 100 ml of the phosphate buffer solution under heat.
Enzyme: The human serum was mixed with 20 times as much water, and after acetic acid had been added into the mixture to adjust it to pH 5.2, the solution was left at room temperature for half an hour. The precipitates obtained by centrifugation at 3,000 rpm for 10 minutes was dissolved in an equal quantity of the buffer solution to that of the serum, and the resulting solution was subjected to centrigugation at 10,000 rpm for half an hour, whereby a plasminogen solution was obtained as the supernatant. A solution of streptokinase (Varidase, Lederle Lab., U.S.A.) having a concentration of 10,000 U/ml was prepared, and kept in a cold and dark place. Prior to use, it was diluted with the buffer solution into a solution having a concentration of 2,000 U/ml. The enzyme solution was adjusted prior to use so that 0.5 ml thereof might show an absorbance of about 0.4 at 280 nm after 20 minutes of reaction.
Method: 0.5 ml of the plasminogen solution, 0.3 ml of the phosphate buffer solution, 0.1 ml of the streptokinase solution, and 0.1 ml of the test sample or water were placed in a test tube (15 mm×100 mm). After the mixed solution in the test tube had been heated at 37° C. for three minutes, 2.0 ml of the fibrinogen solution were added into the solution in the test tube, and reacted therewith at 37° C. for 20 minutes. When the reaction had been completed, 1.5 ml of a 1.7 M perchloric acid solution were added into the test tube, and its contents were shaken slightly. After the test tube had been stood at room temperature for an hour, its contents were subjected to centrigugation at 3,000 rpm for 10 minutes. The absorbance (a) of the supernatant thus obtained was measured at 280 nm. The absorbance (b) of the controll solution not containing any compound of this invention was also measured.
The inhibition coefficients of the compounds of this invention on each enzyme were calculated from the absorbances (a) and (b) obtained as hereinabove described, in accordance with the following formula: [formula] These inhibition rates were obtained for various concentrations of the compounds according to this invention, and the concentration of a 50% inhibition (IC50) were calculated therefrom.
On to `CC(C)C[C@H](NC(=O)C(O)c1ccccc1)C(=O)N[C@H](C=O)CCCNC(=N)N` (mixture of isomers) [Compound No. 35, DL-Mandelyl-L-leucyl-L-argininal hydrochloride], for which the 50% inhibitory concentration (IC50) is 3.17 µM.

For the molecule `CCCC(=O)N[C@@H](CC(C)C)C(=O)N[C@H](C=O)CCCNC(=N)N` [Compound No. 1, n-Butanoyl-L-leucyl-L-argininal hydrochloride], the IC50 was 37.8 µM.

Consider `CCC(CC)C(=O)N[C@@H](CC(C)C)C(=O)N[C@H](C=O)CCCNC(=N)N` [Compound No. 2, 2-Ethylbutanoly-L-leucyl-L-argininal hydrochloride], for which the half-maximal inhibitory concentration (IC50) is 81.2 µM.

As for `CCCCCC(=O)N[C@@H](CC(C)C)C(=O)N[C@H](C=O)CCCNC(=N)N` [Compound No. 3, n-Hexanoly-L-leucyl-L-argininal hydrochloride], the 50% inhibitory concentration (IC50) was 16.8 µM.

Consider `CC(C)CC(=O)N[C@@H](CC(C)C)C(=O)N[C@H](C=O)CCCNC(=N)N` [Compound No. 4, 3-Methylbutanoyl-L-leucyl-L-argininal hydrochloride], for which the IC50 is 21.4 µM.

With `CCCCCCCCC(=O)N[C@@H](CC(C)C)C(=O)N[C@H](C=O)CCCNC(=N)N` [Compound No. 5, n-Nonanoyl-L-leucyl-L-argininal hydrochloride], the IC50 was 2.68 µM.

Turning to `CC(C)C[C@H](NC(=O)C1CCCCC1)C(=O)N[C@H](C=O)CCCNC(=N)N` [Compound No. 6, Cyclohexanecarbonyl-L-leucyl-L-argininal hydrochloride], the IC50 is 56 µM.

`CC(C)C[C@H](NC(=O)c1ccccc1)C(=O)N[C@H](C=O)CCCNC(=N)N` [Compound No. 8, Benzoyl-L-leucyl-L-argininal hydrochloride]: the concentration for half-maximal inhibition (IC50) was 44.4 µM.

For `CC(C)C[C@H](NC(=O)c1cccc(Cl)c1)C(=O)N[C@H](C=O)CCCNC(=N)N` [Compound No. 9, m-Chlorobenzoyl-L-leucyl-L-argininal hydrochloride], the half-maximal inhibitory concentration (IC50) is 13.4 µM.

`Cc1ccc(C(=O)N[C@@H](CC(C)C)C(=O)N[C@H](C=O)CCCNC(=N)N)cc1` [Compound No. 10, p-Methylbenzoyl-L-leucyl-L-argininal hydrochloride]: the IC50 was 32.9 µM.

As to `COc1ccc(C(=O)N[C@@H](CC(C)C)C(=O)N[C@H](C=O)CCCNC(=N)N)cc1` [Compound No. 11, p-Methoxybenzoyl-L-leucyl-L-argininal hydrochloride], the half-maximal inhibitory concentration (IC50) was 39.1 µM.

On to `CC(C)C[C@H](NC(=O)c1ccc([N+](=O)[O-])cc1)C(=O)N[C@H](C=O)CCCNC(=N)N` [Compound No. 12, p-Nitrobenzoyl-L-leucyl-L-argininal hydrochloride], for which the 50% inhibitory concentration (IC50) is 30.6 µM.

As to `CC(C)C[C@H](NS(=O)(=O)c1ccccc1)C(=O)N[C@H](C=O)CCCNC(=N)N` [Compound No. 13, Benzenesulfonyl-L-leucyl-L-argininal hydrochloride], the 50% inhibitory concentration (IC50) was 23.9 µM.

On to `Cc1ccc(S(=O)(=O)N[C@@H](CC(C)C)C(=O)N[C@H](C=O)CCCNC(=N)N)cc1` [Compound No. 14, p-Toluenesulfonyl-L-leucyl-L-argininal hydrochloride], for which the IC50 is 14.5 µM.

As to `CC(C)C[C@H](NC(=O)Cc1ccccc1)C(=O)N[C@H](C=O)CCCNC(=N)N` [Compound No. 15, Phenylacetyl-L-leucyl-L-argininal hydrochloride], the IC50 was 14.6 µM.

Take `CC(C)C[C@H](NC(=O)Cc1ccccc1[N+](=O)[O-])C(=O)N[C@H](C=O)CCCNC(=N)N` [Compound No. 16, o-Nitrophenylacetyl-L-leucyl-L-argininal hydrochloride]: the 50% inhibitory concentration (IC50) was 42.5 µM.

For the molecule `CC(C)C[C@H](NC(=O)Cc1ccc([N+](=O)[O-])cc1)C(=O)N[C@H](C=O)CCCNC(=N)N` [Compound No. 17, p-Nitrophenylacetyl-L-leucyl-L-argininal hydrochloride], the IC50 was 3.61 µM.

For the molecule `CC(C)C[C@H](NC(=O)Cc1ccccc1O)C(=O)N[C@H](C=O)CCCNC(=N)N` [Compound No. 18, o-Hydroxyphenylacetyl-L-leucyl-L-argininal hydrochloride], the IC50 was 12.9 µM.

As for `CC(C)C[C@H](NS(=O)(=O)c1cccc2ccccc12)C(=O)N[C@H](C=O)CCCNC(=N)N` [Compound No. 20, 1-Naphthalenesulfonyl-L-leucyl-L-argininal hydrochloride], the IC50 was 28.2 µM.

For `CC(C)C[C@H](NS(=O)(=O)c1cccc2c(N(C)C)cccc12)C(=O)N[C@H](C=O)CCCNC(=N)N` [Compound No. 21, 5-Dimethylamino-1-naphthalenesulfonyl-L-leucyl-L-argininal 2 hydrochloride], the IC50 is 24.4 µM.

With `CC(C)C[C@H](NC(=O)OCc1ccccc1)C(=O)N[C@H](C=O)CCCNC(=N)N` [Compound No. 25, Benzyloxycarbonyl-L-leucyl-L-argininal hydrochloride], the IC50 was 33.9 µM.

Consider `CC(C)C[C@H](NC(=O)c1ccco1)C(=O)N[C@H](C=O)CCCNC(=N)N` [Compound No. 26, Furan-2-carbonyl-L-leucyl-L-argininal hydrochloride], for which the IC50 was 90.3 µM.

`CC(C)C[C@H](NC(=O)[C@@H]1CCC(=O)N1C(=O)OCc1ccccc1)C(=O)N[C@H](C=O)CCCNC(=N)N` [Compound No. 30, N-Benzyloxycarbonyl-L-pyroglutamyl-L-leucyl-L-argininal hydrochloride]: the IC50 was 0.958 µM.

`CC(C)C[C@H](NC(=O)[C@@H]1CCC(=O)N1)C(=O)N[C@H](C=O)CCCNC(=N)N` [Compound No. 31, L-Pyroglutamyl-L-leucyl-L-argininal hydrochloride] ([pGlu]-Leu-Arg-aldehyde): the concentration for half-maximal inhibition (IC50) is 1.19 µM.

For `CC(C)C[C@H](NC(=O)[C@H](Cc1ccccc1)NC(=O)OCc1ccccc1)C(=O)N[C@H](C=O)CCCN=C(N)N` [Compound No. 36, N-Benzyloxycarbonyl-L-phenylalanyl-L-leucyl-L-argininal hydrochloride] (Cbz-Phe-Leu-Arg-aldehyde), the IC50 is 1.24 µM.

On to `CC(=O)N[C@@H](CC(C)C)C(=O)N[C@@H](CC(C)C)C(=O)N[C@H](C=O)CCCNC(=N)N` [Leupeptin, acetyl or propionyl-L-leucyl-L-leucyl-L-argininal], for which the IC50 is 11 µM.

Still in this test, the particulars now being: read-out: IC50 Plasmin; fibrinogen substrate, plasminogen from human serum + streptokinase, pH 7.2, 37° C., 20 minutes.
With `CC(C)C[C@H](NC(=O)c1ccncc1)C(=O)N[C@H](C=O)CCCNC(=N)N` [Compound No. 22, Isonicotinyl-L-leucyl-L-argininal hydrochloride], the half-maximal inhibitory concentration (IC50) is 88.7 µM.

Regarding `CC(C)C[C@H](NC(=O)c1cccnc1)C(=O)N[C@H](C=O)CCCNC(=N)N` [Compound No. 23, Nicotinyl-L-leucyl-L-argininal hydrochloride], the IC50 was 23.9 µM.

Turning to `CC(C)C[C@H](NC(=O)[C@@H](O)[C@@H](Cc1ccccc1)NC(=O)OCc1ccccc1)C(=O)N[C@H](C=O)CCCNC(=N)N` [Compound No. 37, N-Benzyloxycarbonyl-(2S,3R)-3-amino-2-hydroxy-4-phenylbutanoyl-L-leucyl-L-argininal hydrochloride], the IC50 is 2.4 µM.

The next test deals with fibrinolytic system.
Experiment: not given
As to conditions: cited from earlier work.
On to `CC(=O)N[C@@H](CC(C)C)C(=O)N[C@@H](CC(C)C)C(=O)N[C@H](C=O)CCCNC(=N)N` [Leupeptin, acetyl or propionyl-L-leucyl-L-leucyl-L-argininal], for which the “pharmacological action on the fibrinolytic system” value was “a pharmacological action on the fibrinolytic system”.

The next test deals with chickens with spontaneous muscular dystrophy.
Experiment: not given
Conditions: Libby et al., Science 1978; cited from earlier work.
On to `CC(=O)N[C@@H](CC(C)C)C(=O)N[C@@H](CC(C)C)C(=O)N[C@H](C=O)CCCNC(=N)N` [Leupeptin, acetyl or propionyl-L-leucyl-L-leucyl-L-argininal], for which the “inhibition of atrophy of the muscles” value is given as “inhibits the atrophy of the muscles”.
